# Source: publication PMC6145916, “Interaction of mitochondrial fission factor with dynamin related protein 1 governs physiological mitochondrial function in vivo” (Scientific Reports, 2018)
# Where no end group is shown, it is not given here.
# Key:
# [1] = tested on: SH-SY5Y cells; assay: Mitochondrial ROS (MitoSox Red), SH-SY5Y; assay type: cell-based, human; conditions: overnight treatment, normalized to no peptide; 3 independent experiments
# Description: (§1) Represented Western blot is cropped from a full blot shown in the Expanded Western Blots section of the Supplementary Information. […] Hoechst 33342 is shown in blue and Tom20 in green (n = 3, 10 images each). Below, quantification of the form factor (degree of branching) and major axis length (length of mitochondria). At least 6,000 mitochondrial fragments were measured for each condition. Mitochondrial reactive oxygen species (ROS) production (MitoSox Red) (c) and mitochondrial membrane potential (TMRM) (d) after overnight treatment with indicated concentrations of peptide or FCCP. Data are from 3 independent experiments per condition normalized to the average no peptide value. (e) Relative mitochondrial ROS (MitoSox Red) signal in GFP positive cells expressing full-length or alanine-substituted P259 at indicated amino acids after two days of transfection. Values are normalized to a GFP empty vector (n = 3, with 3 replicates). […] Data are mean ± s.e.
# (§2) Following treatment, cells were washed with treatment media.
# (§3) The Cy5 filter was used to autofocus on the mitochondria plane. […] MitoROS was calculated as the average MitoSox signal per cell. The mitochondrial membrane potential was calculated as the average TMRM signal in the mitochondrial mask. […]
# (§4) calculated as the average MitoSox signal per cell. […]
# [2] = tested on: SH-SY5Y cells; assay: Mitochondrial membrane potential (TMRM), SH-SY5Y; assay type: cell-based, human; conditions: overnight treatment, normalized to no peptide; 3 independent experiments
# Description: as §1, §2, §3, §4
# [3] = tested on: MFF knockout MEFs; assay: Mitochondrial membrane potential (TMRM), MFF knockout MEFs; assay type: cell-based, mouse; conditions: 20 µM P259 overnight, vs no peptide; 3 independent experiments, three technical replicates; ns p = 0.93
# Description: Data are of 3 independent experiments with the whiskers calculated by the Turkey method. e. […]
# determined by an unpaired, two -tailed t test). g. […]
# control (no peptide treatment). Data are mean ± s.e. from 3 independent experiments. […]
# and without phenol red. […] After incubation
# HEPES, and without phenol red. […]
# epifluorescence microscope with a 10X objective (Keyence). The Cy5 filter (Keyence) was used to autofocus on the mitochondria plane. […]
# Mitochondrial membrane potential determination
# After treatment, cells were washed with
# Cells were incubated in a 37
# °C incubator for 30 minutes. […]
# [4] = tested on: striatal neurons; assay: Transmission electron microscopy of striatum; assay type: in vivo, mouse; conditions: 3 mg/Kg/day, 8 weeks, WT mice; 806 (TAT) and 1109 (P259) mitochondria from ten images per condition
# Source text: (§5) (a) Quantification of mitochondrial Drp1 content relative to ALDH2 (a mitochondrial matrix enzyme) in the mitochondrial fraction isolated from total brain lysate of wild-type mice (Western blot shown in Fig. S3B) (n = 4 mice). (b) ATP content in brain tissue of wild-type mice (n = 4 mice, 2 replicates). (c) Representative transmission electron microscopy images of the striatum from wild-type mice. […] The first principal component represents 42% of the variation. (f) Local linear embedding dimensionality reduction and visualization of all behaviors collected weekly from TAT- (black) or P259- (purple) treated WT and TAT- (white) treated R6/2 mice over the course of 8 weeks. […] All behavior and survival tests were conducted by an experienced observer who was blinded to the treatment groups. Data are mean ± s.e.
# (§6) Five-week old R6/2 HD mice and their wild-type littermates (a total of 60 mice) were implanted subcutaneously with a 28-d Alzet osmotic pump with either P259-TAT or TAT control peptide (15 mice per group) to be delivered continuously at a rate of 3 mg/Kg/day, as previously described. All mice were implanted twice for a total of an 8-week treatment. 20 of the WT mice were implanted 3 times for a total of a 12-week treatment at 3 mg/Kg/day. […]
# (§7) To quantify mitochondrial motility, the images at time 0 and 150 seconds w ere overlaid. […]
# [5] = tested on: wild-type mice; assay: ATP content in brain tissue; assay type: in vivo, mouse; conditions: 3 mg/Kg/day, subcutaneous osmotic pump, 8 weeks, WT mice; n = 4 mice, 2 replicates
# Source text: as §5, §6, §7
# [6] = tested on: Wild-type MEF cells; conditions: 4 µM P259, 15 minutes, mito-dendra2 photoconversion; 9 movies over two independent experiments
substance,measurement,setting,value
YGRKKRRQRRRGSGIIQLPEIVVV-NH2 (C-terminus assumed) [P259],mitochondrial ROS levels,[1],increase in mitochondrial reactive oxygen species (ROS) levels
same,mitochondrial membrane potential,[2],mitochondrial depolarization
same,"effect on mitochondrial membrane potential, Mff knockout MEFs",[3],insensitive
same,mitochondrial size and shape in striatal neurons (electron microscopy),[4],larger and more elongated mitochondria in striatal neurons
same,decrease in ATP levels in the brain,[5],30%
same,rate of mitochondrial fusion,[6],did not increase the rate of mitochondrial fusion
